{"source": "patent US20260325538A1", "about": "“THERAPY” (priority 2023, published 2026)", "key": {"[1]": {"test_system": "certain strains of Pseudomonas aeruginosa", "conditions": "in combination with meropenem; cited from earlier work"}, "[2]": {"test_system": "Klebsiella pneumoniae Kpn St147 (NDM-1 and KPC-2)", "assay": "MIC determination of cefepime with zinc chelator and avibactam (checkerboard, broth microdilution)", "assay_type": "cell-based", "description": "Antimicrobial susceptibility testing (AST) by broth microdilution was performed according to The European Committee on Antimicrobial Susceptibility Testing. Reading guide for broth microdilution. Version 4.0, 2022 (see: http://www.eucast.org).\nCheckerboard 96-well plates (Corning 3788) were made by conducting serial two-fold dilutions of cefepime in cation-adjusted Mueller Hinton II broth (caMHB; Thermo Scientific, T3462), in columns across the microtiter plate (64-0.03 μg/ml). Additionally, avibactam was added to rows 3 to 8 in concentrations of 64, 16, 8, 4, 1 and 0.25 μg/ml, respectively. The zinc chelator was added to the wells of the plate, where applicable. Three plates were made per experiment, one without the zinc chelator (plate 1), one with 16 μg/ml of the zinc chelator (plate 2) and one with 32 μg/ml of the zinc chelator (plate 3). The first row in all plates was used as a positive control for cefepime only, and the second row included the zinc chelator in addition to cefepime (no avibactam added to rows 1 or 2). The zinc chelator was added at the indicated concentration, to rows 3-8 of plates 2 and 3.\nThe effect of the combination of zinc chelator/FEP/avibactam was tested on a clinically isolated Klebsiella pneumoniae Kpn St147 actively constitutionally expressing the two resistance mechanisms NDM-1 and KPC-2 simultaneously. As a negative control, bacteria+FEP was tested alone. As a positive control, bacteria+FEP+zinc chelator was used. In Tables 1 and 2, concentrations (μg/ml) of FEP are given in the top row left to right and avibactam concentrations (μg/ml) are given top to bottom in column 1.\nThe fractional inhibitory concentration (FIC) is defined as the concentration that kills when used in combination with another agent divided by the concentration that has the same effect when used alone. The FIC index (FICI) for the combination of two agents is the sum of their individual FIC values. […] The European Committee for Antimicrobial Susceptibility Testing (EUCAST) of the European Society of Clinical Microbiology and Infectious Diseases (ESCMID) 2000 adopts the following definitions to determine the susceptibility of bacteria to an antimicrobial agent (see EUCAST Definitive Document E. Def 1.2: Terminology relating to methods for the determination of susceptibility of bacteria to antimicrobial agents. Clin. Microbiol. Infect. 2000; 6(9): 503-508): • FICI value≤0.5; synergy • 0.5<FICI value≤1; additive effect • 1<FICI value≤2; indifferent effect • FICI≥2; antagonistic effect\nTo test for synergy, all data were subjected to the following formula in which A=zinc chelator; B=cefepime; and C=avibactam:\nΣFICI=MICA(combination)/MICA (alone)+MICB(combination)/MICB (alone)+MICC(combination)/MICC (alone)"}}}
{"smiles": "CN(C[C@H](O)[C@@H](O)[C@H](O)[C@H](O)CO)C(=O)c1ccc(CN(Cc2ccccn2)Cc2ccccn2)nc1", "note": "[zinc chelator]", "values": [{"measurement": "effect of combination with meropenem", "setting": "[1]", "result": "poor effect"}, {"measurement": "FICI Zinc Chelator", "setting": "[2]; zinc chelator 8 μg/mL, with FEP and avibactam", "result": 0.004}, {"measurement": "amplification of the inhibitory effect", "setting": "[2]; zinc chelator at 16 μg/ml, with cefepime and avibactam", "result": "about 16 fold"}]}
